Assay results published in ChEMBL document CHEMBL1145498, “A systematic interaction map of validated kinase inhibitors with Ser/Thr kinases” (Proc Natl Acad Sci U S A, 2007).

The compounds below were run against Dual specificity protein kinase CLK3 (Homo sapiens) (UniProt P49761).
Sequence of Dual specificity protein kinase CLK3 (Homo sapiens) (P49761 whole entry, looked up): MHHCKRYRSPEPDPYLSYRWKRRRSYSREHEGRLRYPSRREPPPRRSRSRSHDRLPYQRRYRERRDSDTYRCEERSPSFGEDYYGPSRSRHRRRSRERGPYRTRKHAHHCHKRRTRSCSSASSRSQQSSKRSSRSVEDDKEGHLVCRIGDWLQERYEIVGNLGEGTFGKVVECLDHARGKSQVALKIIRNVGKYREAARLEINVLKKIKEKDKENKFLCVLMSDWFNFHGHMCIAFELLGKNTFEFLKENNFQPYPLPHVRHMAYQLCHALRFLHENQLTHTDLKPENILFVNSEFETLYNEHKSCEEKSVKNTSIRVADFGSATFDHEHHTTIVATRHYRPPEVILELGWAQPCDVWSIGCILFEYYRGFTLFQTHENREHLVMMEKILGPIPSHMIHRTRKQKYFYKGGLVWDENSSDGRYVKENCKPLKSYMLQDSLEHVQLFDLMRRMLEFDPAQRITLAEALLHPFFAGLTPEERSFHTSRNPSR

| Structure (SMILES) | ΔTm |
| --- | --- |
| O=c1cc(N2CCOCC2)oc2c(-c3ccccc3)cccc12 | 0.1 °C |
| O=[N+]([O-])c1ccc(-c2nc(-c3ccc(F)cc3)c(-c3ccncc3)[nH]2)cc1 | 0.1 °C |
| Nc1nccc(-c2c(-c3ccc(F)cc3)ncn2C2CCNCC2)n1 | 0.1 °C |

Now from value to compound:

| ΔTm | Structure (SMILES) |
| --- | --- |
| 2.5 °C | O=C1NC(=O)C(c2c[nH]c3ccccc23)=C1c1c[nH]c2ccccc12 |
| 0.3 °C | CN(C)CC1CCn2c(c(C3=C(c4c[nH]c5ccccc45)C(=O)NC3=O)c3ccccc32)C1 (stereo not given) |

The compounds below were run against Calcium/calmodulin-dependent protein kinase type 1G (Homo sapiens) (UniProt Q96NX5).
Sequence of Calcium/calmodulin-dependent protein kinase type 1G (Homo sapiens) (Q96NX5 whole entry): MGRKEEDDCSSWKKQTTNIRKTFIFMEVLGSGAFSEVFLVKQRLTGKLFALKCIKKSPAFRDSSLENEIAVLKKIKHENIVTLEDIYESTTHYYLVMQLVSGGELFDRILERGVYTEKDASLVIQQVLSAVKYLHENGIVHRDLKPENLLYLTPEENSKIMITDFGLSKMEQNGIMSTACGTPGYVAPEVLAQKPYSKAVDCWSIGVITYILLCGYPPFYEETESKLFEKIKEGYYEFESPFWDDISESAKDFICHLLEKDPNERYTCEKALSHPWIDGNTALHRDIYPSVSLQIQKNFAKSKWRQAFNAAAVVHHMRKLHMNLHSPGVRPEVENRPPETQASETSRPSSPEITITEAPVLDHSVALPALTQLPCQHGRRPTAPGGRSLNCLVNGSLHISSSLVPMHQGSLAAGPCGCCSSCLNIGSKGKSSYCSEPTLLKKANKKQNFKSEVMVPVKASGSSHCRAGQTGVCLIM

| Structure (SMILES) | ΔTm |
| --- | --- |
| O=c1cc(N2CCOCC2)oc2c(-c3ccccc3)cccc12 | 0.4 °C |
| O=[N+]([O-])c1ccc(-c2nc(-c3ccc(F)cc3)c(-c3ccncc3)[nH]2)cc1 | -0.2 °C |
| Nc1nccc(-c2c(-c3ccc(F)cc3)ncn2C2CCNCC2)n1 | 0.3 °C |

More lines, now with the values ahead:

| ΔTm | Structure (SMILES) |
| --- | --- |
| 1 °C | O=C1NC(=O)C(c2c[nH]c3ccccc23)=C1c1c[nH]c2ccccc12 |
| 0.3 °C | CN(C)CC1CCn2c(c(C3=C(c4c[nH]c5ccccc45)C(=O)NC3=O)c3ccccc32)C1 (stereo not given) |

Each compound was assayed against T1, Serine/threonine-protein kinase 4 (Homo sapiens) (UniProt Q13043).
T1 sequence (whole entry): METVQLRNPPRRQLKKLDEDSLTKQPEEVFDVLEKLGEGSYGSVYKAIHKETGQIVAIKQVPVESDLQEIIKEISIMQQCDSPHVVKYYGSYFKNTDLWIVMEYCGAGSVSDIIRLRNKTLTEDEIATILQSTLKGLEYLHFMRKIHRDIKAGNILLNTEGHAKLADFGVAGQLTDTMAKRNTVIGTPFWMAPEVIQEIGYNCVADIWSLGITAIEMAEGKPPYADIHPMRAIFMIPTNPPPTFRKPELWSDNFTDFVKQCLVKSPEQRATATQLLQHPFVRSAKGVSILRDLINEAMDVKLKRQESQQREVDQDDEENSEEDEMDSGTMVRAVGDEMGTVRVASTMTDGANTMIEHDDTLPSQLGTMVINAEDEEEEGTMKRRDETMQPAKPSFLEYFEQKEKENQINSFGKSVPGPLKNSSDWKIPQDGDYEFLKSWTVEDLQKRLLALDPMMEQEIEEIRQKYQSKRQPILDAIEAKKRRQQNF

| Structure (SMILES) | ΔTm |
| --- | --- |
| O=c1cc(N2CCOCC2)oc2c(-c3ccccc3)cccc12 | 0.6 °C |
| O=[N+]([O-])c1ccc(-c2nc(-c3ccc(F)cc3)c(-c3ccncc3)[nH]2)cc1 | 1.4 °C |
| Nc1nccc(-c2c(-c3ccc(F)cc3)ncn2C2CCNCC2)n1 | 2.6 °C |

The remaining lines, values ahead:

| ΔTm | Structure (SMILES) |
| --- | --- |
| 4.1 °C | O=C1NC(=O)C(c2c[nH]c3ccccc23)=C1c1c[nH]c2ccccc12 |
| 4.9 °C | CN(C)CC1CCn2c(c(C3=C(c4c[nH]c5ccccc45)C(=O)NC3=O)c3ccccc32)C1 (stereo not given) |

The compounds below were run against Serine/threonine-protein kinase 10 (Homo sapiens) (UniProt O94804).
Sequence of Serine/threonine-protein kinase 10 (Homo sapiens) (O94804 whole entry, looked up): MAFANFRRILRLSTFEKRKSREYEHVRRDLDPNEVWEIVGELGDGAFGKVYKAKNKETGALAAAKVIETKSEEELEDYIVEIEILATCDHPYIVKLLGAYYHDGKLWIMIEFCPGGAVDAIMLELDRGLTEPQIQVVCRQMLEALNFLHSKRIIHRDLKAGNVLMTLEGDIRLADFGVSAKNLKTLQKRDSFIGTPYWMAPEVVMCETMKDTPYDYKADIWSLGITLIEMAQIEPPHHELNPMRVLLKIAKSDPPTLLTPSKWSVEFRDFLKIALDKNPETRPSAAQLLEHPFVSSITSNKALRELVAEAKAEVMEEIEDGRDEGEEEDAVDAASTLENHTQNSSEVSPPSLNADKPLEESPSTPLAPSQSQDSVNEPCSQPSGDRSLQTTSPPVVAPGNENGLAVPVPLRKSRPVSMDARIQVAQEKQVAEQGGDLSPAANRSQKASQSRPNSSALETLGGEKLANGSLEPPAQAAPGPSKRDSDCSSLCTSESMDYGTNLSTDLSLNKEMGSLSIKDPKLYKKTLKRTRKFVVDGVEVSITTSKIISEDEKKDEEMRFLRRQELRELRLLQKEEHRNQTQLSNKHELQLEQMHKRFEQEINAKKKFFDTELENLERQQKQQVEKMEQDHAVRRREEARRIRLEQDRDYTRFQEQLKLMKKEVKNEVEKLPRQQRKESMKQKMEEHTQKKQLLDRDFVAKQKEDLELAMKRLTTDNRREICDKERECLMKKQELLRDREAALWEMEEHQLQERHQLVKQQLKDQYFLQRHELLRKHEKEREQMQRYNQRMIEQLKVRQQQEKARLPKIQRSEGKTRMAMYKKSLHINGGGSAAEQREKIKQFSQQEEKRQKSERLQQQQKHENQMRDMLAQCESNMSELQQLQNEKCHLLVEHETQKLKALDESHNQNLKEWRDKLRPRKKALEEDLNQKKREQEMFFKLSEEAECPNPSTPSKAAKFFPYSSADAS

| Structure (SMILES) | ΔTm |
| --- | --- |
| O=c1cc(N2CCOCC2)oc2c(-c3ccccc3)cccc12 | 0.8 °C |
| O=[N+]([O-])c1ccc(-c2nc(-c3ccc(F)cc3)c(-c3ccncc3)[nH]2)cc1 | 5.9 °C |
| Nc1nccc(-c2c(-c3ccc(F)cc3)ncn2C2CCNCC2)n1 | 1.5 °C |

Next, values leading:

| ΔTm | Structure (SMILES) |
| --- | --- |
| 6.2 °C | O=C1NC(=O)C(c2c[nH]c3ccccc23)=C1c1c[nH]c2ccccc12 |
| 4.1 °C | CN(C)CC1CCn2c(c(C3=C(c4c[nH]c5ccccc45)C(=O)NC3=O)c3ccccc32)C1 (stereo not given) |

Each compound was assayed against Cyclin-dependent kinase 6 (Homo sapiens) (UniProt Q00534).
Sequence of Cyclin-dependent kinase 6 (Homo sapiens) (Q00534 whole entry): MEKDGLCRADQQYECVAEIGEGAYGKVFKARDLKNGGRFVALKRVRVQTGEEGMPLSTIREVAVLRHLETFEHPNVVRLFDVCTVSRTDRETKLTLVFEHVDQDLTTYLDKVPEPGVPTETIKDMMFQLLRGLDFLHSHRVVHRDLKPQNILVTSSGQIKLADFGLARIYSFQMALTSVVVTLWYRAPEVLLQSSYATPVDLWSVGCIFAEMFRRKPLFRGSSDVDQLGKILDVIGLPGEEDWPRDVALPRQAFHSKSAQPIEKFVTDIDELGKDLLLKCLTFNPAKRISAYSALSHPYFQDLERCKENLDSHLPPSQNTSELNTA

| Structure (SMILES) | ΔTm |
| --- | --- |
| O=c1cc(N2CCOCC2)oc2c(-c3ccccc3)cccc12 | 0.5 °C |
| O=[N+]([O-])c1ccc(-c2nc(-c3ccc(F)cc3)c(-c3ccncc3)[nH]2)cc1 | 0.9 °C |
| Nc1nccc(-c2c(-c3ccc(F)cc3)ncn2C2CCNCC2)n1 | 0.3 °C |

The next lines start with the values.

| ΔTm | Structure (SMILES) |
| --- | --- |
| 1.2 °C | O=C1NC(=O)C(c2c[nH]c3ccccc23)=C1c1c[nH]c2ccccc12 |
| 0.8 °C | CN(C)CC1CCn2c(c(C3=C(c4c[nH]c5ccccc45)C(=O)NC3=O)c3ccccc32)C1 (stereo not given) |

These compounds were tested against Cyclin-dependent kinase 16 (Homo sapiens) (UniProt Q00536).
Sequence of Cyclin-dependent kinase 16 (Homo sapiens) (Q00536 whole entry): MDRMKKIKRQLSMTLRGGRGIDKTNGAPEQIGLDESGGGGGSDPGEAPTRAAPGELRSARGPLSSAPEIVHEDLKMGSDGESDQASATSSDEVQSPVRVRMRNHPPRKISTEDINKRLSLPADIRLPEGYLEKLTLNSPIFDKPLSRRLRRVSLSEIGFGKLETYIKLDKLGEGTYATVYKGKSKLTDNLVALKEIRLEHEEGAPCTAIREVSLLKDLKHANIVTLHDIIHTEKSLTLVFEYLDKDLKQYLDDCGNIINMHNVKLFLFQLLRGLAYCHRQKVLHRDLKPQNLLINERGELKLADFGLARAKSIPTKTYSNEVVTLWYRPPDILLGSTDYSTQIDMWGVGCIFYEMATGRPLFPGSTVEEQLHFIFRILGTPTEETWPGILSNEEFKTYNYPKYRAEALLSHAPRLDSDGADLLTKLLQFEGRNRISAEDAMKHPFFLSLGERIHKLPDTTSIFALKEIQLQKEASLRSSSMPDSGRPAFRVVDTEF

| Structure (SMILES) | ΔTm |
| --- | --- |
| O=c1cc(N2CCOCC2)oc2c(-c3ccccc3)cccc12 | 0 °C |
| O=[N+]([O-])c1ccc(-c2nc(-c3ccc(F)cc3)c(-c3ccncc3)[nH]2)cc1 | -0.9 °C |
| Nc1nccc(-c2c(-c3ccc(F)cc3)ncn2C2CCNCC2)n1 | 0.5 °C |

Now from value to compound:

| ΔTm | Structure (SMILES) |
| --- | --- |
| 1.7 °C | O=C1NC(=O)C(c2c[nH]c3ccccc23)=C1c1c[nH]c2ccccc12 |
| 3 °C | CN(C)CC1CCn2c(c(C3=C(c4c[nH]c5ccccc45)C(=O)NC3=O)c3ccccc32)C1 (stereo not given) |

These compounds were tested against T2, Mitogen-activated protein kinase kinase kinase 5 (Homo sapiens) (UniProt Q99683).
T2 sequence (whole entry): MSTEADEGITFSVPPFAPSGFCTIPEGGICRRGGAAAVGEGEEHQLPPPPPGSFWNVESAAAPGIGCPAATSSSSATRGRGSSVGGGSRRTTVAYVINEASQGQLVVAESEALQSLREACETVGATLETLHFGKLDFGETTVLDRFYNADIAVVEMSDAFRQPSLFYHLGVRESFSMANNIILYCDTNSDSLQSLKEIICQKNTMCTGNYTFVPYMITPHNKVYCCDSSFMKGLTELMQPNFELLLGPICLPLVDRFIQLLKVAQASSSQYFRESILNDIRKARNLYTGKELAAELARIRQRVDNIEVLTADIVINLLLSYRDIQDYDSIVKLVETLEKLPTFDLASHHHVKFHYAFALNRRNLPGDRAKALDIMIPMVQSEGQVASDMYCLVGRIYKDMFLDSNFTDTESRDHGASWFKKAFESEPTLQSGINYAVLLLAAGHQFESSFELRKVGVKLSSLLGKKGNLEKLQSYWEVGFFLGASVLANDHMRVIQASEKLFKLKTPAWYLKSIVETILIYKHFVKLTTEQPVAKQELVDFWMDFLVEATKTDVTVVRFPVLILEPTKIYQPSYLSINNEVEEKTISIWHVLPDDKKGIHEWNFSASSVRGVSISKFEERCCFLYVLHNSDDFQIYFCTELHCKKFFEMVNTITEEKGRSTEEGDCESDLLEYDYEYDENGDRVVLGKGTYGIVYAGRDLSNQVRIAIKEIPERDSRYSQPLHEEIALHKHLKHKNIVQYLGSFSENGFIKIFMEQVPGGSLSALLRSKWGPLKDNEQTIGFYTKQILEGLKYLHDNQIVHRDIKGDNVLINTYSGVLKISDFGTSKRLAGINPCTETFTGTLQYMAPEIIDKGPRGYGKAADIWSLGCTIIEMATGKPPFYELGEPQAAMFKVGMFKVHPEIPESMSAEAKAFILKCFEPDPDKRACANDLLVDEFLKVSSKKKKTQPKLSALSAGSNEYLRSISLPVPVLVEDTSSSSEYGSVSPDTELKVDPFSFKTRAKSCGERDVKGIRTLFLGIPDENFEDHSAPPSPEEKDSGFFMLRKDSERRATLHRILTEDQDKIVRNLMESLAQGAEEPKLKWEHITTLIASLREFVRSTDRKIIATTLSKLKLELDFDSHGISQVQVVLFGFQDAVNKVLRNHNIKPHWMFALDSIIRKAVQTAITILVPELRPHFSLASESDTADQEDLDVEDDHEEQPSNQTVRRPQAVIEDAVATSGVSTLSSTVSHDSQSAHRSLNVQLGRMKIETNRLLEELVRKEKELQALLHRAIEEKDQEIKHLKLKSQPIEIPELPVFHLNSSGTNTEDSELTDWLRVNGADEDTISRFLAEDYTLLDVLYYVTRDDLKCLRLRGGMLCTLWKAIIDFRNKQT

| Structure (SMILES) | ΔTm |
| --- | --- |
| O=c1cc(N2CCOCC2)oc2c(-c3ccccc3)cccc12 | 0.3 °C |
| O=[N+]([O-])c1ccc(-c2nc(-c3ccc(F)cc3)c(-c3ccncc3)[nH]2)cc1 | -0.3 °C |
| Nc1nccc(-c2c(-c3ccc(F)cc3)ncn2C2CCNCC2)n1 | 0.3 °C |

Second part, the compound after the results:

| ΔTm | Structure (SMILES) |
| --- | --- |
| 0.2 °C | O=C1NC(=O)C(c2c[nH]c3ccccc23)=C1c1c[nH]c2ccccc12 |
| 0 °C | CN(C)CC1CCn2c(c(C3=C(c4c[nH]c5ccccc45)C(=O)NC3=O)c3ccccc32)C1 (stereo not given) |

These compounds were tested against Serine/threonine-protein kinase PLK1 (Homo sapiens) (UniProt P53350).
Sequence of Serine/threonine-protein kinase PLK1 (Homo sapiens) (P53350 whole entry): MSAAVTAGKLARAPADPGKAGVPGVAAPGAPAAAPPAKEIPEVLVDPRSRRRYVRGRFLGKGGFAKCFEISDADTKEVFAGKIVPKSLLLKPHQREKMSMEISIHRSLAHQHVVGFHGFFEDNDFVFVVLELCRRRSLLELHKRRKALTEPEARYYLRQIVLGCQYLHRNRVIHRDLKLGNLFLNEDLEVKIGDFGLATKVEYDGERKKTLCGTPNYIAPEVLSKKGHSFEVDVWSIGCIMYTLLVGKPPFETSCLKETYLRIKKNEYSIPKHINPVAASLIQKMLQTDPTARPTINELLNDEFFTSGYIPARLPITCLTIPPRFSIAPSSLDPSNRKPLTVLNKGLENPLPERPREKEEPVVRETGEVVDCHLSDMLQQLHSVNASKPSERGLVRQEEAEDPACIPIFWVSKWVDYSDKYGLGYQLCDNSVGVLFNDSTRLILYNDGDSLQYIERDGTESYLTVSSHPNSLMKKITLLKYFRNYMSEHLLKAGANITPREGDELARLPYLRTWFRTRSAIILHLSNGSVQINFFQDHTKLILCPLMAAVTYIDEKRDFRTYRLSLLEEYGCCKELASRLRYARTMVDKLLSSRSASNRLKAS

| Structure (SMILES) | ΔTm |
| --- | --- |
| O=c1cc(N2CCOCC2)oc2c(-c3ccccc3)cccc12 | 4.7 °C |
| O=[N+]([O-])c1ccc(-c2nc(-c3ccc(F)cc3)c(-c3ccncc3)[nH]2)cc1 | -1.4 °C |
| Nc1nccc(-c2c(-c3ccc(F)cc3)ncn2C2CCNCC2)n1 | 0.1 °C |

Results, then the compound that gave them:

| ΔTm | Structure (SMILES) |
| --- | --- |
| 0.6 °C | O=C1NC(=O)C(c2c[nH]c3ccccc23)=C1c1c[nH]c2ccccc12 |
| -0.2 °C | CN(C)CC1CCn2c(c(C3=C(c4c[nH]c5ccccc45)C(=O)NC3=O)c3ccccc32)C1 (stereo not given) |

Each compound was assayed against T3, Serine/threonine-protein kinase Nek2 (Homo sapiens) (UniProt P51955).
T3 sequence (whole entry): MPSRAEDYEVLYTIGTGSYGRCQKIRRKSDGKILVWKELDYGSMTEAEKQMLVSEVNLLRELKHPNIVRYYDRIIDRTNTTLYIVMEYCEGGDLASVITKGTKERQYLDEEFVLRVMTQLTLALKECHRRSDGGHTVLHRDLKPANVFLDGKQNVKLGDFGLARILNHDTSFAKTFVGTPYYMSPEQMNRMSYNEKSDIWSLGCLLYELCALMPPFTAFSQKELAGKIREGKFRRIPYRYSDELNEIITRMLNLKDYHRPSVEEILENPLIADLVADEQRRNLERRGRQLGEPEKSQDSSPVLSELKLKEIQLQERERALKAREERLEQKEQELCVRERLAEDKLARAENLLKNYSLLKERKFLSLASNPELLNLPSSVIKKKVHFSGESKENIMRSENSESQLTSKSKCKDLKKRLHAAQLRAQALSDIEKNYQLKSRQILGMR

| Structure (SMILES) | ΔTm |
| --- | --- |
| O=c1cc(N2CCOCC2)oc2c(-c3ccccc3)cccc12 | 1.3 °C |
| O=[N+]([O-])c1ccc(-c2nc(-c3ccc(F)cc3)c(-c3ccncc3)[nH]2)cc1 | -0.5 °C |
| Nc1nccc(-c2c(-c3ccc(F)cc3)ncn2C2CCNCC2)n1 | 1.1 °C |

Other lines, results leading:

| ΔTm | Structure (SMILES) |
| --- | --- |
| 1.9 °C | O=C1NC(=O)C(c2c[nH]c3ccccc23)=C1c1c[nH]c2ccccc12 |
| 1 °C | CN(C)CC1CCn2c(c(C3=C(c4c[nH]c5ccccc45)C(=O)NC3=O)c3ccccc32)C1 (stereo not given) |

What follows are compounds tested against Mitogen-activated protein kinase 6 (Homo sapiens) (UniProt Q16659).
Sequence of Mitogen-activated protein kinase 6 (Homo sapiens) (Q16659 whole entry): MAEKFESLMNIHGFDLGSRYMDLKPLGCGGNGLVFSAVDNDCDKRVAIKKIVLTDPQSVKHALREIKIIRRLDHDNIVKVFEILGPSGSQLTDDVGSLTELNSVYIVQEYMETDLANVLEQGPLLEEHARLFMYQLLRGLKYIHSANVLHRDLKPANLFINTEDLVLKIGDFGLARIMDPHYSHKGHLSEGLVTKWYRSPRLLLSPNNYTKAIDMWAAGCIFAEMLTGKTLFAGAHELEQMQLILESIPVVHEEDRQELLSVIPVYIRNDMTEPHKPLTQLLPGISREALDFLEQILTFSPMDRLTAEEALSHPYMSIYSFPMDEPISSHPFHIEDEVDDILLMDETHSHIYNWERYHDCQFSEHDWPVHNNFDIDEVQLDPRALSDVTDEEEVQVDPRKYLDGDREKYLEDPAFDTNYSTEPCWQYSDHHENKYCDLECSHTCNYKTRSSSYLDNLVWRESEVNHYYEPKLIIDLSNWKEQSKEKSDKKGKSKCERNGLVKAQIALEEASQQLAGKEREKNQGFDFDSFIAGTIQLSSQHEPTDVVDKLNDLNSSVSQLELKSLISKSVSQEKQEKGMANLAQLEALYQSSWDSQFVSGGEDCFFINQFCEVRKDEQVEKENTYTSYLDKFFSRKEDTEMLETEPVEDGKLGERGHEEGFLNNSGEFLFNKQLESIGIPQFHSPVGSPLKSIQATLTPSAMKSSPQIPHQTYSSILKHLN

| Structure (SMILES) | ΔTm |
| --- | --- |
| O=c1cc(N2CCOCC2)oc2c(-c3ccccc3)cccc12 | 0.6 °C |
| O=[N+]([O-])c1ccc(-c2nc(-c3ccc(F)cc3)c(-c3ccncc3)[nH]2)cc1 | 0.4 °C |
| Nc1nccc(-c2c(-c3ccc(F)cc3)ncn2C2CCNCC2)n1 | 0.3 °C |

Now from value to compound:

| ΔTm | Structure (SMILES) |
| --- | --- |
| 0.5 °C | O=C1NC(=O)C(c2c[nH]c3ccccc23)=C1c1c[nH]c2ccccc12 |
| 0.6 °C | CN(C)CC1CCn2c(c(C3=C(c4c[nH]c5ccccc45)C(=O)NC3=O)c3ccccc32)C1 (stereo not given) |
